Counter-ions that a name gives are not always drawn.
Assays:
[1] = system: panel of 45 pharmacologically relevant CNS targets and receptors; conditions: for PDSP binding summary: insignificant: 10 µM
Text: (§1) Off-Target Profiling. […] In this assay,^28 compounds were screened against a panel of 45 pharmacologically relevant CNS targets and receptors using a radioligand displacement assay.

human eNOS (heNOS) = target: T1, human eNOS (heNOS) (Homo sapiens, UniProt P29474); test: Hemoglobin capture assay, purified human eNOS; format: biochemical
T1 construct: made in house; host or cells: E. coli
Experimental: (§2) Purified NOS Enzyme Assays. Rat and human nNOS, rat nNOS mutants, murine macrophage iNOS, human iNOS, and human eNOS were recombinant enzymes (expressed in E. coli and purified as reported previously).^21,50-52 To test for NOS inhibition, the hemoglobin capture assay was used to measure nitric oxide production. […] Also included were 100 μM NADPH, 0.83 mM CaCl2), approximately 320 units/mL of calmodulin, 10 μM H4B, and human oxyhemoglobin (3 μM). For iNOS, the CaCl2) and calmodulin were omitted and replaced with HEPES buffer (as neither are required for activation of iNOS). The assay was performed in 96-well plates using a Synergy 4 BioTek hybrid reader. […] Kinetic readouts were performed for 5 min. Each compound was assayed at least in duplicate, and six to nine concentrations (500 μM-50 nM or 100 μM-10 nM for eNOS and iNOS; 50 μM to 5 nM for rat and human nNOS) were used to construct concentration-response curves.

[2] = PAMPA
Experimental: In this assay, an artificial membrane containing BBB phospholipids is used to assess permeability.
PAMPA-BBB Assay. The PAMPA-BBB assay was performed following a protocol described previously.^21 Briefly, the assay was performed in 10 mM phosphate-buffered saline (PBS) buffer (pH 7.5), and compounds were tested at a concentration of 200 μM. The donor plate was first coated with 4 μL of porcine brain lipid (20 mg/mL in dodecane), followed by addition of 250 μL of a test compound. The acceptor plate was filled with 250 μL of PBS, and the donor plate was carefully placed on top of the acceptor plate to make a “sandwich”. The plate was incubated at 25° C. for 17 h in a saturated humidity atmosphere with orbital agitation at 100 rpm. […] After incubation, 150 μL of the test solution was taken from each well from both sides (donor and acceptor) and transferred to the UV plate for measurement. The effective permeability (Pe) was calculated using the following equation^57
R is the retention membrane factor and was calculated using the following equation

H3 receptor = H3 receptor (Homo sapiens, UniProt Q9Y5N1); test: PDSP off-target profiling, H3 receptor
Sequence of H3 receptor (Q9Y5N1 whole entry): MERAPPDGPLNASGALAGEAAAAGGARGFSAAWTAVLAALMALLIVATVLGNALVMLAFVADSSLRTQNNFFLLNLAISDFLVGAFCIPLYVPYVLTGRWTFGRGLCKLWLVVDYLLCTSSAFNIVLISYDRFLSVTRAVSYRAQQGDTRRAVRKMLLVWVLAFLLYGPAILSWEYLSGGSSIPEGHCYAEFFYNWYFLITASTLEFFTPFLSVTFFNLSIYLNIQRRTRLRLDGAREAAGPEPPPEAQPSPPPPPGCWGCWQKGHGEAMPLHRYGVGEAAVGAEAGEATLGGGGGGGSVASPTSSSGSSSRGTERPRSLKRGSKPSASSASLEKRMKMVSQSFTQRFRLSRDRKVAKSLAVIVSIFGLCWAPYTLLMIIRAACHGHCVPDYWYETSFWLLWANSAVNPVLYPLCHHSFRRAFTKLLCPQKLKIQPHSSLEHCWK
Text: as §1

[3] = target: rat nNOS M336V/D597N double mutant (Rattus norvegicus, UniProt P29476, D597N/M336V); conditions: versus the single mutant
Experimental: as §2

rat nNOS (rnNOS) = target: T2, rat nNOS (rnNOS) (Rattus norvegicus, UniProt P29476); test: Hemoglobin capture assay, purified rat nNOS; format: biochemical
T2 construct: made in house; host or cells: E. coli
Experimental: as §2

H2 receptor = H2 receptor (Homo sapiens, UniProt P25021); test: PDSP off-target profiling, H2 receptor; format: binding
Sequence of H2 receptor (P25021 whole entry): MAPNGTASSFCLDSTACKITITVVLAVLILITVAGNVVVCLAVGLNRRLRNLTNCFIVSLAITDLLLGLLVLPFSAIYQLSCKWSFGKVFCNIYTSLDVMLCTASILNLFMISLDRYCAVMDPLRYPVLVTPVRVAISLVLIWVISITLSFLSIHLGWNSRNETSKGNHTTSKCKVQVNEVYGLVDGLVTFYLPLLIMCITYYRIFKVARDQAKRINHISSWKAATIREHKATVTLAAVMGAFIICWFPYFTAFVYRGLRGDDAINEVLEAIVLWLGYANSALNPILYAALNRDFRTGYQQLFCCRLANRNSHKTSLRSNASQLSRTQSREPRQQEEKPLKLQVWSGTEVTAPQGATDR
Text: as §1

human iNOS (hiNOS) = human iNOS (hiNOS) (Homo sapiens, UniProt P35228); conditions: read-out: Ki hiNOS; Ki calculated from IC50 (Cheng-Prusoff)
Experimental: Human iNOS Inhibition Study.
as §2

[4] = target: rat nNOS D597N single mutant (Rattus norvegicus, UniProt P29476, D597N)
Experimental: as §2

## Cc1cc(N)nc2cc(-c3ccc(OCc4cccnc4)c(CN)c3)ccc12.Cl.Cl.Cl [Compound 33, 7-(3-(Aminomethyl)-4-(pyridin-3-ylmethoxy)phenyl)-4-methylquinolin-2-amine Trihydrochloride]
[1]
  fraction of concerning or moderate hits: 8/45
  PDSP binding summary: insignificant: 20
Human eNOS (heNOS); 33 versus 32
  improvement in binding affinity toward heNOS: 3 fold

## NCCc1ccc(O)c(O)c1 [dopamine]
[2]
  prediction (CNS): CNS (−)

## Cc1cc(N)nc2cc(-c3ccc(OCC4CC4)c(CN)c3)ccc12.Cl.Cl [Compound 29, 7-(3-(Aminomethyl)-4-(cyclopropylmethoxy)phenyl)-4-methylquinolin-2-amine Dihydrochloride]
H3 receptor
  off-target binding classification, H3 receptor: concerning (concerning (Ki<100 nM, or <˜2× nNOS Ki value))

## Cc1cc(N)nc2cc(-c3ccc(OCc4ccccn4)c(CN)c3)ccc12.Cl.Cl.Cl [Compound 32, 7-(3-(Aminomethyl)-4-(pyridin-2-ylmethoxy)phenyl)-4-methylquinolin-2-amine Trihydrochloride]
[1]
  fraction of concerning or moderate hits: 11/45
  PDSP binding summary: insignificant: 12

## Cc1cc(N)nc2cc(-c3ccc(OCc4cocn4)c(CN)c3)ccc12 [Compound 36, 7-(3-(Aminomethy)-4-(oxazol-4-ylmethoxy)phenyl)-4-methylquinolin-2-amine Trihydrochloride]
[3]
  increased potency against the double mutant: 5 fold

## Cc1cc(N)nc2cc(-c3ccc(CN)cc3)ccc12.Cl.Cl [Compound 7, 7-(4-(Aminomethyl)phenyl)-4-methylquinolin-2-amine Dihydrochloride]
Rat nNOS (rnNOS); relative to 5
  increase in rnNOS activity: 2.3 fold

## Cc1cc(N)nc2cc(-c3ccc4c(c3)C(N)CC4)ccc12.Cl.Cl (racemic) [Compound 18, 7-(3-Amino-2,3-dihydro-1H-inden-5-yl)-4-methylquinolin-2-amine Dihydrochloride]
Rat nNOS (rnNOS); 6 vs 5, 15 and 18 vs 12, 17 vs 7
  loss in rnNOS potency relative to comparator: approximately 3 fold
Rat nNOS (rnNOS); wild-type rat nNOS, Ki calculated from IC50
  Ki: 0.18 µM

## 7-(3-(2-Aminoethyl)phenyl)-4-methylquinolin-2-amine Dihydrochloride [Compound 12]
H2 receptor
  off-target binding classification, H2 receptor: concerning (concerning (Ki<100 nM, or <˜2× nNOS Ki value))
Human iNOS (hiNOS)
  Ki: 29.9 µM
[4]; obtained from Ki values
  ΔGbind hnNOS D597N mutant: -30.5 kJ/mol
[4]; versus wild type
  decrease in potency, D597N mutant: 8 fold
HLM without NADPH, 60 min
  % remaining at 60 min (—NADPH): 87%
Buffer control, 60 min
  % remaining at 60 min (buffer): 67%
half-life in HLM, Dihydrochloride
  t1/2: >1 h
In vitro intrinsic clearance, HLM
  CLint: 0.48 L/h/kg
Human eNOS (heNOS); Ki calculated from IC50
  Ki: 52.6 µM
Human eNOS (heNOS); obtained from Ki values
  ΔGbind WT heNOS: -18.8 kJ/mol

— patent US20220411377A1, “SELECTIVE NEURONAL NITRIC OXIDE SYNTHASE INHIBITORS” (Northwestern University, priority 2019, published 2022)
